This passage reports EC50 results from patent US20260070906A1, “IMIDAZO[4,5-C]PYRIDINE COMPOUNDS FOR THE TREATMENT OF CANCER” (Hoffmann-La Roche Inc., priority 2023, published 2026).

One test has as its target T1, human TLR7 (Homo sapiens, UniProt Q9NYK1).
T1 construct: host or cells: HEK293-Blue-hTLR7 (HEK293)
T1 sequence (Q9NYK1 27-1049): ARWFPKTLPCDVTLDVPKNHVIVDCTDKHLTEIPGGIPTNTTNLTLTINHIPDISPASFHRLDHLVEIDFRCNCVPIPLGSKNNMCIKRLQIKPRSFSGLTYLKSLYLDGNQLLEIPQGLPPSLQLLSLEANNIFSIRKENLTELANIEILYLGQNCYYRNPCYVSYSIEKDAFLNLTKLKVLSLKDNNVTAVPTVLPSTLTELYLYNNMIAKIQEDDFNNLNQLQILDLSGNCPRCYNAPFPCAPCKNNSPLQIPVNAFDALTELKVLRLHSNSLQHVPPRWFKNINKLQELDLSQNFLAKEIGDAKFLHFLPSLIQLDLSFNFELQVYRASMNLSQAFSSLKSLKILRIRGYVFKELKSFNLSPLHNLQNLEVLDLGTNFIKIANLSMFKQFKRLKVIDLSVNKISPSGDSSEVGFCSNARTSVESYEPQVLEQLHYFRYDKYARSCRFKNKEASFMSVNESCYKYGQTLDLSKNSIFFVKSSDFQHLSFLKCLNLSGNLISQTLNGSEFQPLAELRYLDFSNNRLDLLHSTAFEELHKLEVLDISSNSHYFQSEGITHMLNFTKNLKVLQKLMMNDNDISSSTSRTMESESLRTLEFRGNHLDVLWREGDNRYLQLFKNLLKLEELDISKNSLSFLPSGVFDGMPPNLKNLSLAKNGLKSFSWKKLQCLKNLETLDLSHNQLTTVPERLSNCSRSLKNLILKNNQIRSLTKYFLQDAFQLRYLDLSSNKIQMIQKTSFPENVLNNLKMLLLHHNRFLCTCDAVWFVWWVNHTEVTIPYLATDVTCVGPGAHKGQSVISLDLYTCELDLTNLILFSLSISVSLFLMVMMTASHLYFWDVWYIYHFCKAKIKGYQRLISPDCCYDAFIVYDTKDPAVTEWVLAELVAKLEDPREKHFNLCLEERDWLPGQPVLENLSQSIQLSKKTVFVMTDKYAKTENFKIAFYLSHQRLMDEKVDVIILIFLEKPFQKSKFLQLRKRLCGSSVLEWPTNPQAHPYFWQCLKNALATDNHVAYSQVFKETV
As to the kind of experiment: HEK293-Blue-hTLR7 cells assay (NF-κB SEAP reporter). It counts as cell-based. As to conditions: 20 hrs incubation, agonism. An excerpt:
A stable HEK293-Blue-hTLR7 cell line was purchased from InvivoGen (Cat. #: hkb-htlr7, San Diego, California, USA). These cells were designed for studying the stimulation of human TLR7 by monitoring the activation of NF-κB. A SEAP (secreted embryonic alkaline phosphatase) reporter gene was placed under the control of the IFN-β minimal promoter fused to five NF-κB and AP-1-binding sites. The SEAP was induced by activating NF-κB and AP-1 via stimulating HEK-Blue hTLR7 cells with TLR7 ligands. Therefore the reporter expression was regulated by the NF-κB promoter upon stimulation of human TLR7 for 20 hrs. The cell culture supernatant SEAP reporter activity was determined using QUANTI-Blue™ kit (Cat. #: rep-qbl, Invivogen, San Diego, Ca, USA) at a wavelength of 650 nm, a detection medium that turns purple or blue in the presence of alkaline phosphatase.
HEK293-Blue-hTLR7 cells were incubated at a density of 250,000˜450,000 cells/mL in a volume of 180 μL in a 96-well plate in Dulbecco's Modified Eagle's medium (DMEM) containing 4.5 g/L glucose, 100 U/mL penicillin, 100 μg/mL streptomycin, 100 μg/mL Normocin, 1% (V/V) GlutaMAX™, 10% (V/V) heat-inactivated fetal bovine serum for 24 hrs. Then the HEK293-Blue-hTLR-7 cells were incubated with addition of 20 μL test compound in a serial dilution in the presence of final DMSO at 1% and perform incubation under 37° C. in a CO2 incubator for 20 hrs. Then 20 μL of the supernatant from each well was incubated with 180 μL Quanti-blue substrate solution at 37° C. for 1 hours and the absorbance was read at 620-655 nm using a spectrophotometer. The signalling pathway that TLR7 activation leads to downstream NF-κB activation has been widely accepted, and therefore similar reporter assay was also widely used for evaluating TLR7 agonist (Tsuneyasu Kaisho and Takashi Tanaka, Trends in Immunology, Volume 29, Issue 7, July 2008, […]; Hiroaki Hemmi et al, Nature Immunology 3, 196-200 (2002)).

The target of a further test is T2, human TLR8 (Homo sapiens, UniProt Q9NR97).
T2 construct: host or cells: HEK293-Blue-hTLR8 (HEK293)
T2 sequence (Q9NR97 27-1041): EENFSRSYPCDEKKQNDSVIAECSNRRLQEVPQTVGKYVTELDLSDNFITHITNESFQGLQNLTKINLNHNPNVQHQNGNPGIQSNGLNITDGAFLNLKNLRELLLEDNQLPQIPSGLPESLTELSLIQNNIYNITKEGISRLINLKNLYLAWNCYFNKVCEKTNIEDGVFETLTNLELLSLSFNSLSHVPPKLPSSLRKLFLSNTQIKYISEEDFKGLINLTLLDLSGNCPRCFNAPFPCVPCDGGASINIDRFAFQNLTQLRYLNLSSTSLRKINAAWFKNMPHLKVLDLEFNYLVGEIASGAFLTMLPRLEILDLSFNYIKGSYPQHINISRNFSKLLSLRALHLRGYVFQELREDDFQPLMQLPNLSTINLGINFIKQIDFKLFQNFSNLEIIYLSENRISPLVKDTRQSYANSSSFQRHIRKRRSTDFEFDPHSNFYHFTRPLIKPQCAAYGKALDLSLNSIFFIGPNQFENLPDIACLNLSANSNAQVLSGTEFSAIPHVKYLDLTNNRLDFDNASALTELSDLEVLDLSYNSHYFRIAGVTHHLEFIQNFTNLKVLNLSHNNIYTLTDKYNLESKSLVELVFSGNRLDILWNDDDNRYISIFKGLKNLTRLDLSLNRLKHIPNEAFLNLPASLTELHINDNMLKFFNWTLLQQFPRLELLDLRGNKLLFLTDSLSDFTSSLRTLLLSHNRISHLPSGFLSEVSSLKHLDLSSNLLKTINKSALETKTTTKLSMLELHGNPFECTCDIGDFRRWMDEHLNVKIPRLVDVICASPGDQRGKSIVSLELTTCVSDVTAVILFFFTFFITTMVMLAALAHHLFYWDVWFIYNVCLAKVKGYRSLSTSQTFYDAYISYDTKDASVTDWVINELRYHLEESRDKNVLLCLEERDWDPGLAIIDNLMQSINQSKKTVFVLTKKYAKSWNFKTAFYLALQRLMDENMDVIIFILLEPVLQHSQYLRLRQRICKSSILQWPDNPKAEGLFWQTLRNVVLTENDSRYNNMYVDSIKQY
As to the kind of experiment: HEK293-Blue-hTLR8 cells assay (NF-κB SEAP reporter). It counts as cell-based. As to conditions: 20 hours incubation, agonism. The text has this:
A stable HEK293-Blue-hTLR8 cell line was purchased from InvivoGen (Cat. #: hkb-htlr8, San Diego, California, USA). These cells were designed for studying the stimulation of human TLR8 by monitoring the activation of NF-κB. A SEAP (secreted embryonic alkaline phosphatase) reporter gene was placed under the control of the IFN-β minimal promoter fused to five NF-κB and AP-1-binding sites. The SEAP was induced by activating NF-κB and AP-1 via stimulating HEK-Blue hTLR8 cells with TLR8 ligands. Therefore the reporter expression was regulated by the NF-κB promoter upon stimulation of human TLR8. The cell culture supernatant SEAP reporter activity was determined using QUANTI-Blue™ kit (Cat. #: rep-qbl, Invivogen, San Diego, Ca, USA) at a wavelength of 650 nm, a detection medium that turns purple to blue in the presence of alkaline phosphatase.
HEK293-Blue-hTLR8 cells were incubated at a density of 250,000-450,000 cells/mL in a volume of 180 μL in a 96-well plate in Dulbecco's Modified Eagle's medium (DMEM) containing 4.5 g/L glucose, 100 U/mL penicillin, 100 μg/mL streptomycin, 100 μg/mL Normocin, 1% (V/V) GlutaMAX™, 10% (v/v) heat-inactivated fetal bovine serum for 24 hours. Then the HEK293-Blue-hTLR8 cells were incubated with addition of 20 μL test compound in a serial dilution in the presence of final DMSO at 1% and perform incubation under 37° C. in a CO2 incubator for 20 hours. Then 20 μL of the supernatant from each well was incubated with 180 μL Quanti-blue substrate solution at 37° C. for 1 hours and the absorbance was read at 620-655 nm using a spectrophotometer. The signalling pathway that TLR8 activation leads to downstream NF-κB activation has been widely accepted, and therefore similar reporter assay was also widely used for evaluating TLR8 agonist.

Each structure is given as a SMILES string.

As to `CCOCc1nc2c(N)nc(C)c(Sc3cc(C)c(CN(C)C)cc3O)c2[nH]1` [Example 23, 2-[[4-amino-2-(ethoxymethyl)-6-methyl-1H-imidazo[4,5-c]pyridin-7-yl]sulfanyl]-5-[(dimethylamino)methyl]-4-methyl-phenol], the EC50 is 25 nM on human TLR7 and 82 nM on human TLR8.

On to `CCOCc1nc2c(N)nc(C)c(SCCc3ccc(CN(C)C)cc3)c2[nH]1` [Example 10, 7-[2-[4-[(dimethylamino)methyl]phenyl]ethylsulfanyl]-2-(ethoxymethyl)-6-methyl-1H-imidazo[4,5-c]pyridin-4-amine], for which the 50% effective concentration (EC50) on human TLR7 worked out at 8 nM; at human TLR8, 10 nM.

With `CCOCc1nc2c(N)nc(C)c(Sc3ccc(CN(C)C)cc3O)c2[nH]1` [Example 8, 2-[[4-amino-2-(ethoxymethyl)-6-methyl-1H-imidazo[4,5-c]pyridin-7-yl]sulfanyl]-5-[(dimethylamino)methyl]phenol], the EC50 at human TLR7 turned out to be 27 nM; on human TLR8 it was 26 nM.

Regarding `CCOCc1nc2c(N)nc(C)c(Sc3ccc(CN(C)C)cc3N)c2[nH]1` [Example 20, 7-[2-amino-4-[(dimethylamino)methyl]phenyl]sulfanyl-2-(ethoxymethyl)-6-methyl-LH-imidazo[4,5-c]pyridin-4-amine], the EC50 at human TLR7 amounted to 22 nM; at human TLR8 it was 40 nM.

Regarding `CCCCc1nc2c(N)nc(C)c(SCCc3ccc(CN(C)C)cc3)c2[nH]1` [Example 15, 2-butyl-7-[2-[4-[(dimethylamino)methyl]phenyl]ethylsulfanyl]-6-methyl-1H-imidazo[4,5-c]pyridin-4-amine], the EC50 was 6 nM on human TLR7 and 22 nM at human TLR8.

As for `CCOCc1nc2c(N)nc(C)c(Sc3ccc(CN4CCCC4)cc3N)c2[nH]1` [Example 26, 7-[2-amino-4-(pyrrolidin-1-ylmethyl)phenyl]sulfanyl-2-(ethoxymethyl)-6-methyl-1H-imidazo[4,5-c]pyridin-4-amine], the EC50 at human TLR7 was found to be 21 nM; at human TLR8, 15 nM.

As for `CCOCc1nc2c(N)nc(C)c(Sc3ccc(CN(C)C)c4cc[nH]c34)c2[nH]1` [Example 18, 7-[[4-[(dimethylamino)methyl]-1H-indol-7-yl]sulfanyl]-2-(ethoxymethyl)-6-methyl-1H-imidazo[4,5-c]pyridin-4-amine], the results for the half-maximal effective concentration (EC50) on human TLR7 and at human TLR8 were 9 nM and 19 nM, respectively.

For `CCOCc1nc2c(N)nc(C)c(Sc3ccc(CN4CCN(C)CC4)c(N)c3)c2[nH]1` [Example 28, 7-[3-amino-4-[(4-methylpiperazin-1-yl)methyl]phenyl]sulfanyl-2-(ethoxymethyl)-6-methyl-1H-imidazo[4,5-c]pyridin-4-amine], the EC50 on human TLR7 amounted to 10 nM; on human TLR8, 44 nM.

Regarding `CCCN(CC)Cc1ccc(Sc2c(C)nc(N)c3nc(COCC)[nH]c23)cc1` [Example 5, 2-(ethoxymethyl)-7-[4-[[ethyl(propyl)amino]methyl]phenyl]sulfanyl-6-methyl-1H-imidazo[4,5-c]pyridin-4-amine], the EC50 at human TLR7 came to 18 nM; at human TLR8, 30 nM.
